The values that follow come from patent publication US20240293563A1, “GLP-1 RECEPTOR LIGAND MOIETY CONJUGATED OLIGONUCLEOTIDES AND USES THEREOF” (priority 2017, published 2024).

Square brackets hold non-standard residues; d marks the D form. Side chains are listed from the residue outwards. Ends that are not written are not given here. 5'‑hexylamino oligonucleotide ISIS 722061 = not defined here; Aib = CC(C)(N)C(=O)O; Mpa = O=C(O)CCS

One assay deals with MALAT-1. Put plainly: Dose-dependent reduction of MALAT-1 expression in LVX-GLP1R cells. In kind it is cell-based, human. How it is done:
HEK cells stably expressing FLAG-tagged GLP1R were generated by infecting HEK 293 cells with FLAG-tagged GLP1R containing lentivirus produced by transfection of 293T cells with pLVX-IRES-Puro (Clontech Laboratories Inc., Mountainview, CA) harboring the FLAG-GLP1R insert. Infected cells were selected with puromycin (2 μg/ml) and then analyzed for receptor expression by western blot and immunofluorescence. Cultured GLP1R cells were plated at a density of 10,000 cells per well and treated with 0.3, 1, 3, 9, 27, 82, 247, 741, 2,222, 6,667, and 20,000 nM modified oligonucleotide for approximately 24 hours. After the treatment period, total RNA was prepared using an RNeasy mini kit (Qiagen, Valencia, CA, USA) and qRT-PCR was performed using the primer probe set RTS2739 (forward sequence: […] (SEQ ID NO: 74), reverse sequence: […] (SEQ ID NO: 75), probe sequence: […] (SEQ ID NO: 76). Briefly, ˜50 ng total RNA in 5 d water was mixed with 0.3 d primer probe sets containing forward and reverse primers (10 μM of each) and fluorescently labeled probe (3 μM), 0.3 W RT enzyme mix (Qiagen), 4.4 d RNase-free water, and 10 d of 2×PCR reaction buffer in a 20 d reaction. Reverse transcription was performed at 48° C. for 10 min, 40 cycles of PCR were conducted at 94° C. for 20 s, and 60° C. for 20 s within each cycle, using StepOne Plus RT-PCR system (Applied Biosystems, Phoenix, AZ, USA). The mRNA levels were normalized to the amount of total RNA present in each reaction as determined by Ribogreen assay (Life Technologies) and normalized to the saline control (100% expression).

Assay [1] relates to MALAT1. In words: MALAT1 in situ hybridization in beta islet cells after i.v. GLP-1 ASO conjugates with various linkers. In kind it is in vivo, mouse. The following applies: male C57BL/6 mice; intravenous 0.6 μmol/kg/week once a week for three weeks; 72 hours after final injection.
The test system of assay [2] is MALAT1. Put plainly: Effect of peptide composition and attachment point on peptide-conjugated ASO activity in LVX-GLP1R cells. In kind it is cell-based, human. The settings on record: 7 doses in a 4-fold dilution series, MALAT1 RNA.

As for “ION 962963 (H[Aib]EGTFTSDVSSYLEEQAAKEFIAWLVKGGPSSGAPPPSC([Mpa-5'‑hexylamino oligonucleotide ISIS 722061])-NH2; reading uncertain; also: Cys40 joined to the linker by a disulfide)”, in the assay with MALAT-1 (GLP1R HEK cells, GLP-1 complexed ASOs with or without a TCA linker versus parent), the “dose-dependent inhibition of MALAT-1” value is reported as “increased dose-dependent inhibition”. Further, the IC50 in the assay with MALAT-1 (approximately 24 hours, read-out: IC50 (MALAT-1 expression in GLP1R HEK cells)) was 0.35 µM. The “MALAT1 expression in beta islet cells compared to saline control (in situ hybridization)” value in the assay with MALAT1 [1] is “reduced”.
“ION 1083569 (HSEGTFTSDVSSYLEGQAAKEFIAWLVKGRX; C-terminal Z = 4-azidonorleucine, joined by a click reaction to the 5'-BCN MALAT1 oligonucleotide ION 791173; C-terminal amide)” came in with an IC50 in the assay on MALAT1 [2] of 2.02 µM.
